Source: the NIST ThermoML archive (doi:10.1016/j.jct.2019.07.011)

Assay: xn = mol fraction of the nth substance listed
Settings: Gas, Frequency=0.002 MHz, Spherical resonator

[He] [helium] + C
Settings	speed of sound [m/s]
325 K, 5510.1 kPa, x2 = 0.95	474.34
325 K, 6484.7 kPa, x2 = 0.8999	489.68
325 K, 6498.1 kPa, x2 = 0.95	475.29
325 K, 7001.3 kPa, x2 = 0.95	475.96
325 K, 7483.3 kPa, x2 = 0.8999	491.54
325 K, 7498.5 kPa, x2 = 0.95	476.75
325 K, 8497.4 kPa, x2 = 0.8999	493.86
325 K, 8512.5 kPa, x2 = 0.95	478.75
325 K, 9494.2 kPa, x2 = 0.8999	496.64
325 K, 9503.9 kPa, x2 = 0.95	481.25
325 K, 10493 kPa, x2 = 0.8999	499.87
325 K, 10502 kPa, x2 = 0.95	484.31
325 K, 11469 kPa, x2 = 0.95	487.82
325 K, 11475 kPa, x2 = 0.8999	503.57
325 K, 12500 kPa, x2 = 0.8999	507.85
325 K, 12517 kPa, x2 = 0.95	492.25
325 K, 13295 kPa, x2 = 0.95	495.91
325 K, 13503 kPa, x2 = 0.8999	512.52
325 K, 14011 kPa, x2 = 0.95	499.58
325 K, 14493 kPa, x2 = 0.8999	517.56
325 K, 14716 kPa, x2 = 0.95	503.46
325 K, 15294 kPa, x2 = 0.8999	521.98
325 K, 15309 kPa, x2 = 0.95	506.94
325 K, 15995 kPa, x2 = 0.8999	526.06
325 K, 16003 kPa, x2 = 0.95	511.23
325 K, 16485 kPa, x2 = 0.8999	529.05
325 K, 16552 kPa, x2 = 0.95	514.81
325 K, 16992 kPa, x2 = 0.8999	532.23
325 K, 17002 kPa, x2 = 0.95	517.85
325 K, 17513 kPa, x2 = 0.95	521.43
325 K, 17520 kPa, x2 = 0.8999	535.66
325 K, 17961 kPa, x2 = 0.95	524.66
325 K, 17995 kPa, x2 = 0.8999	538.81
325 K, 18490 kPa, x2 = 0.8999	542.22
325 K, 18521 kPa, x2 = 0.95	528.85
325 K, 18993 kPa, x2 = 0.8999	545.76
325 K, 19024 kPa, x2 = 0.95	532.71
325 K, 19504 kPa, x2 = 0.8999	549.41
325 K, 19536 kPa, x2 = 0.95	536.75
325 K, 19906 kPa, x2 = 0.8999	552.38
350 K, 476.77 kPa, x2 = 0.95	491.9
350 K, 489.4 kPa, x2 = 0.8999	503.05
350 K, 985.81 kPa, x2 = 0.95	491.68
350 K, 990 kPa, x2 = 0.8999	503.09
350 K, 1981.5 kPa, x2 = 0.8999	503.39
350 K, 1988.5 kPa, x2 = 0.95	491.41
350 K, 3476.8 kPa, x2 = 0.8999	504.31
350 K, 3557.7 kPa, x2 = 0.95	491.72
350 K, 4993.3 kPa, x2 = 0.8999	506.12
350 K, 5005.4 kPa, x2 = 0.95	492.68
350 K, 6484 kPa, x2 = 0.8999	508.51
350 K, 6520.9 kPa, x2 = 0.95	494.52
350 K, 7487.6 kPa, x2 = 0.8999	510.6
350 K, 8493.7 kPa, x2 = 0.8999	513.01
350 K, 8537.3 kPa, x2 = 0.95	498.36
350 K, 9502.1 kPa, x2 = 0.8999	515.83
350 K, 10503 kPa, x2 = 0.8999	518.95
350 K, 10534 kPa, x2 = 0.95	503.83
350 K, 11996 kPa, x2 = 0.8999	524.33
350 K, 12032 kPa, x2 = 0.95	509.02
350 K, 13418 kPa, x2 = 0.95	514.87
350 K, 13498 kPa, x2 = 0.8999	530.47
350 K, 14498 kPa, x2 = 0.8999	535.04
350 K, 14519 kPa, x2 = 0.95	519.93
350 K, 15505 kPa, x2 = 0.8999	539.96
350 K, 15599 kPa, x2 = 0.95	525.36
350 K, 16500 kPa, x2 = 0.8999	545.16
350 K, 16626 kPa, x2 = 0.95	530.93
350 K, 17495 kPa, x2 = 0.8999	550.65
350 K, 17512 kPa, x2 = 0.95	536.05
350 K, 18437 kPa, x2 = 0.95	541.71
350 K, 18509 kPa, x2 = 0.8999	556.57
350 K, 19237 kPa, x2 = 0.95	546.81
350 K, 19509 kPa, x2 = 0.8999	562.67
350 K, 20020 kPa, x2 = 0.95	552
350 K, 20352 kPa, x2 = 0.8999	568.05
350 K, 20966 kPa, x2 = 0.95	558.46
375 K, 480.89 kPa, x2 = 0.8999	517.61
375 K, 508.08 kPa, x2 = 0.95	506.89
375 K, 970.3 kPa, x2 = 0.95	506.94
375 K, 974.52 kPa, x2 = 0.8999	518
375 K, 1977.8 kPa, x2 = 0.8999	518.72
375 K, 1994.9 kPa, x2 = 0.95	507.23
375 K, 2982.4 kPa, x2 = 0.8999	519.78
375 K, 3486.1 kPa, x2 = 0.95	508.11
375 K, 4474.8 kPa, x2 = 0.8999	521.69
375 K, 4994.3 kPa, x2 = 0.95	509.68
375 K, 5993.9 kPa, x2 = 0.8999	524.5
375 K, 6507.4 kPa, x2 = 0.95	511.94
375 K, 7482.9 kPa, x2 = 0.8999	527.66
375 K, 8485.9 kPa, x2 = 0.8999	530.3
375 K, 8534.5 kPa, x2 = 0.95	516.24
375 K, 9494.9 kPa, x2 = 0.8999	533.16
375 K, 10491 kPa, x2 = 0.8999	536.22
375 K, 10526 kPa, x2 = 0.95	521.64
375 K, 11482 kPa, x2 = 0.8999	539.61
375 K, 12041 kPa, x2 = 0.95	526.64
375 K, 12500 kPa, x2 = 0.8999	543.46
375 K, 13432 kPa, x2 = 0.95	531.87
375 K, 13465 kPa, x2 = 0.8999	547.3
375 K, 14475 kPa, x2 = 0.8999	551.75
375 K, 14510 kPa, x2 = 0.95	536.35
375 K, 15493 kPa, x2 = 0.8999	556.41
375 K, 15609 kPa, x2 = 0.95	541.3
375 K, 16440 kPa, x2 = 0.8999	560.93
375 K, 16573 kPa, x2 = 0.95	545.93
375 K, 17490 kPa, x2 = 0.8999	566.34
375 K, 17518 kPa, x2 = 0.95	550.72
375 K, 18172 kPa, x2 = 0.8999	569.92
375 K, 18322 kPa, x2 = 0.95	555.02
375 K, 18705 kPa, x2 = 0.8999	572.84
375 K, 19198 kPa, x2 = 0.95	559.9
